This experiment addresses T1, active p38 alpha enzyme (Upstate Biotechnology) (Homo sapiens, UniProt Q16539).
T1 construct: purchased Upstate Biotechnology
As to the kind of experiment: p38α biochemical assay (ATP turnover, luminescent detection, Cambrex PKlight). The conditions noted are these: p38α kinase; Table 1 Biological Activity. The essentials: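 Active p38α phosphorylates MapkapK2 whole protein with 1.4 uM final ATP, 2 h at 30C, in Tris/MOPS buffer with MgCl2, CaCl2, EGTA, EDTA, glycerol, β-mercaptoethanol and 1 mg/ml BSA. Compounds pin-delivered from DMSO; total ATP turnover read by luminescence after PKlight addition.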

Data on 60 compounds can be found in patent publication US20060252807A1, “Novel ortho-terphenyl inhibitors of p38 kinase and methods of treating inflammatory disorders” (Kalypsys, Inc., priority 2005, published 2006).

T1 sequence (Q16539 whole entry): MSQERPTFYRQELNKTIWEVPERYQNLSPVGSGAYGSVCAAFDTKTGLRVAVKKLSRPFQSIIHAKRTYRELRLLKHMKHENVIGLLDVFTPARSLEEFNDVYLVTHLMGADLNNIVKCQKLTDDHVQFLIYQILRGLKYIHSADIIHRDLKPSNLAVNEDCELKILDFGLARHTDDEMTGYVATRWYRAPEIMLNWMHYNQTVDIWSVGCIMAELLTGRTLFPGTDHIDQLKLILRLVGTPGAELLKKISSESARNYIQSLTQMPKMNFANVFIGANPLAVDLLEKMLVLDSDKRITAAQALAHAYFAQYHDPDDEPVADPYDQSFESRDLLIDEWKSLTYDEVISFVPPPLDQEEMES

As usually defined, the IC50 is the concentration that gives 50% inhibition. Higher therefore signals weaker potency. In the case of `COc1cccc(CNC(=O)c2csc(-c3c(-c4ccc(F)cc4)n[nH]c3C3CCNCC3)n2)c1` [Example 2103], the half-inhibitory concentration (IC50) is above 1000 nM.

As for `O=C(NCCc1ccc(F)cc1)c1csc(-c2c(-c3ccc(F)cc3)n[nH]c2C2CCNCC2)n1` [Example 2104], the concentration for half-maximal inhibition (IC50) was above 1000 nM.

`O=C(NCCc1ccccc1F)c1csc(-c2c(-c3ccc(F)cc3)n[nH]c2C2CCNCC2)n1` [Example 2105] yielded an IC50 above 1000 nM.

Take `O=C(NCCc1cccc(F)c1)c1csc(-c2c(-c3ccc(F)cc3)n[nH]c2C2CCNCC2)n1` [Example 2106]: the IC50 was above 1000 nM.

As to `O=C(NCc1cccc(Cl)c1)c1csc(-c2c(-c3ccc(F)cc3)n[nH]c2C2CCNCC2)n1` [Example 2107], the IC50 was above 1000 nM.

`O=C(NCc1ccccc1Cl)c1csc(-c2c(-c3ccc(F)cc3)n[nH]c2C2CCNCC2)n1` [Example 2108] gave a half-inhibitory concentration (IC50) above 1000 nM.

In the case of `O=C(NCc1ccc(Cl)cc1)c1csc(-c2c(-c3ccc(F)cc3)n[nH]c2C2CCNCC2)n1` [Example 2109], the half-maximal inhibitory concentration (IC50) is above 1000 nM.

The compound `O=C(NCCCN1CCCC1=O)c1csc(-c2c(-c3ccc(F)cc3)n[nH]c2C2CCNCC2)n1` [Example 2110] came in with a 50% inhibitory concentration (IC50) above 1000 nM.

Consider `O=C(NCc1ccc(F)cc1F)c1csc(-c2c(-c3ccc(F)cc3)n[nH]c2C2CCNCC2)n1` [Example 2111], for which the IC50 was above 1000 nM.

As for `O=C(NCc1ccc(F)c(F)c1)c1csc(-c2c(-c3ccc(F)cc3)n[nH]c2C2CCNCC2)n1` [Example 2112], the concentration for half-maximal inhibition (IC50) was above 1000 nM.

On to `O=C(NCc1cc(F)cc(F)c1)c1csc(-c2c(-c3ccc(F)cc3)n[nH]c2C2CCNCC2)n1` [Example 2113], for which the concentration for half-maximal inhibition (IC50) is above 1000 nM.

In turn, `O=C(NCCCN1CCOCC1)c1csc(-c2c(-c3ccc(F)cc3)n[nH]c2C2CCNCC2)n1` [Example 2114] returned an IC50 above 1000 nM.

Compound `CC(C)N(CCNC(=O)c1csc(-c2c(-c3ccc(F)cc3)n[nH]c2C2CCNCC2)n1)C(C)C` [Example 2115] had an IC50 above 1000 nM.

Turning to `O=C(NC1CCCc2ccccc21)c1csc(-c2c(-c3ccc(F)cc3)n[nH]c2C2CCNCC2)n1` (stereo not drawn) [Example 2116], the IC50 is above 1000 nM.

Regarding `CC(CCc1ccccc1)NC(=O)c1csc(-c2c(-c3ccc(F)cc3)n[nH]c2C2CCNCC2)n1` (stereo not drawn) [Example 2117], the half-maximal inhibitory concentration (IC50) was above 1000 nM.

Take `CC(C)c1ccc(CNC(=O)c2csc(-c3c(-c4ccc(F)cc4)n[nH]c3C3CCNCC3)n2)cc1` [Example 2118]: the IC50 is above 1000 nM.

Compound `O=C(NCc1ccc2c(c1)OCO2)c1csc(-c2c(-c3ccc(F)cc3)n[nH]c2C2CCNCC2)n1` [Example 2119] displayed an IC50 above 1000 nM.

For `COc1cccc(CCNC(=O)c2csc(-c3c(-c4ccc(F)cc4)n[nH]c3C3CCNCC3)n2)c1` [Example 2120], the 50% inhibitory concentration (IC50) was above 1000 nM.

Take `O=C(N[C@H](CO)Cc1ccccc1)c1csc(-c2c(-c3ccc(F)cc3)n[nH]c2C2CCNCC2)n1` [Example 2121]: the IC50 was above 1000 nM.

Consider `COc1ccc(CCNC(=O)c2csc(-c3c(-c4ccc(F)cc4)n[nH]c3C3CCNCC3)n2)cc1` [Example 2122], for which the IC50 is above 1000 nM.

With `COc1ccccc1CCNC(=O)c1csc(-c2c(-c3ccc(F)cc3)n[nH]c2C2CCNCC2)n1` [Example 2123], the IC50 is above 1000 nM.

In turn, `CCOc1ccccc1CNC(=O)c1csc(-c2c(-c3ccc(F)cc3)n[nH]c2C2CCNCC2)n1` [Example 2124] displayed an IC50 above 1000 nM.

`COc1ccc(NC(=O)c2csc(-c3c(-c4ccc(F)cc4)n[nH]c3C3CCNCC3)n2)cc1OC` [Example 2125]: the 50% inhibitory concentration (IC50) is above 1000 nM.

Take `O=C(NCCc1ccccc1Cl)c1csc(-c2c(-c3ccc(F)cc3)n[nH]c2C2CCNCC2)n1` [Example 2126]: the IC50 is above 1000 nM.

For the compound `O=C(NCCc1ccc(Cl)cc1)c1csc(-c2c(-c3ccc(F)cc3)n[nH]c2C2CCNCC2)n1` [Example 2127], the IC50 was above 1000 nM.

With `O=C(NCCc1cccc(Cl)c1)c1csc(-c2c(-c3ccc(F)cc3)n[nH]c2C2CCNCC2)n1` [Example 2128], the concentration for half-maximal inhibition (IC50) is above 1000 nM.

`CC1(C)CC(NC(=O)c2csc(-c3c(-c4ccc(F)cc4)n[nH]c3C3CCNCC3)n2)CC(C)(C)N1` [Example 2129] showed a half-inhibitory concentration (IC50) above 1000 nM.

In turn, `CCN(CC)CCCC(C)NC(=O)c1csc(-c2c(-c3ccc(F)cc3)n[nH]c2C2CCNCC2)n1` (stereo not drawn) [Example 2130] showed a half-maximal inhibitory concentration (IC50) above 1000 nM.

Compound `O=C(NCc1ccc(F)c(Cl)c1)c1csc(-c2c(-c3ccc(F)cc3)n[nH]c2C2CCNCC2)n1` [Example 2131] showed an IC50 above 1000 nM.

In turn, `N#CCCN(Cc1ccccc1)C(=O)c1csc(-c2c(-c3ccc(F)cc3)n[nH]c2C2CCNCC2)n1` [Example 2132] showed a 50% inhibitory concentration (IC50) above 1000 nM.

The compound `CC(C)(C)OC(=O)NCCNC(=O)c1csc(-c2c(-c3ccc(F)cc3)n[nH]c2C2CCNCC2)n1` [Example 2133] registered a concentration for half-maximal inhibition (IC50) above 1000 nM.

As for `O=C(NCCc1c[nH]c2ccccc12)c1csc(-c2c(-c3ccc(F)cc3)n[nH]c2C2CCNCC2)n1` [Example 2134], the IC50 is above 1000 nM.

For the compound `CC(C)(C)c1ccc(CNC(=O)c2csc(-c3c(-c4ccc(F)cc4)n[nH]c3C3CCNCC3)n2)cc1` [Example 2135], the IC50 is above 1000 nM.

`CN(CCCNC(=O)c1csc(-c2c(-c3ccc(F)cc3)n[nH]c2C2CCNCC2)n1)c1ccccc1` [Example 2136] yielded an IC50 above 1000 nM.

In the case of `O=C(NCC1(O)CCCCC1)c1csc(-c2c(-c3ccc(F)cc3)n[nH]c2C2CCNCC2)n1` [Example 2137], the half-maximal inhibitory concentration (IC50) was above 1000 nM.

In the case of `COc1cc(CNC(=O)c2csc(-c3c(-c4ccc(F)cc4)n[nH]c3C3CCNCC3)n2)cc(OC)c1` [Example 2138], the IC50 is above 1000 nM.

With `COc1ccc(CNC(=O)c2csc(-c3c(-c4ccc(F)cc4)n[nH]c3C3CCNCC3)n2)cc1OC` [Example 2139], the half-inhibitory concentration (IC50) is above 1000 nM.

Regarding `O=C(CNC(=O)c1csc(-c2c(-c3ccc(F)cc3)n[nH]c2C2CCNCC2)n1)c1ccccc1` [Example 2140], the concentration for half-maximal inhibition (IC50) is above 1000 nM.

For `CCOC(=O)N1CCC(NC(=O)c2csc(-c3c(-c4ccc(F)cc4)n[nH]c3C3CCNCC3)n2)CC1` [Example 2141], the IC50 was above 1000 nM.

With `CC(C)(C)OC(=O)NCCCNC(=O)c1csc(-c2c(-c3ccc(F)cc3)n[nH]c2C2CCNCC2)n1` [Example 2142], the IC50 was above 1000 nM.

The compound `O=C(NCc1ccc(C(F)(F)F)cc1)c1csc(-c2c(-c3ccc(F)cc3)n[nH]c2C2CCNCC2)n1` [Example 2143] yielded an IC50 above 1000 nM.

In the case of `O=C(NCc1cccc(C(F)(F)F)c1)c1csc(-c2c(-c3ccc(F)cc3)n[nH]c2C2CCNCC2)n1` [Example 2144], the concentration for half-maximal inhibition (IC50) was above 1000 nM.

As to `O=C(NCc1ccc(Cl)c(Cl)c1)c1csc(-c2c(-c3ccc(F)cc3)n[nH]c2C2CCNCC2)n1` [Example 2145], the IC50 is above 1000 nM.

As to `O=C(NCc1ccc(Cl)cc1Cl)c1csc(-c2c(-c3ccc(F)cc3)n[nH]c2C2CCNCC2)n1` [Example 2146], the half-inhibitory concentration (IC50) was above 1000 nM.

As for `O=C(NC1CCN(Cc2ccccc2)C1)c1csc(-c2c(-c3ccc(F)cc3)n[nH]c2C2CCNC2)n1` (stereo not drawn) [Example 2147], the 50% inhibitory concentration (IC50) was above 1000 nM.

As to `COc1ccc(OC)c(CCNC(=O)c2csc(-c3c(-c4ccc(F)cc4)n[nH]c3C3CCNCC3)n2)c1` [Example 2148], the concentration for half-maximal inhibition (IC50) is above 1000 nM.

In turn, `CN(C)c1ccc(CNC(=O)c2csc(-c3c(-c4ccc(F)cc4)n[nH]c3C3CCNCC3)n2)cc1` [Example 2149] showed an IC50 above 1000 nM.

As to `COc1ccc(CNC(=O)c2csc(-c3c(-c4ccc(F)cc4)n[nH]c3C3CCNCC3)n2)cc1O` [Example 2150], the 50% inhibitory concentration (IC50) is at most 1000 nM.

For the compound `O=C(NC1CCN(Cc2ccccc2)CC1)c1csc(-c2c(-c3ccc(F)cc3)n[nH]c2C2CCNCC2)n1` [Example 2151], the IC50 was above 1000 nM.

On to `O=C(NCc1ccccc1OC(F)(F)F)c1csc(-c2c(-c3ccc(F)cc3)n[nH]c2C2CCNCC2)n1` [Example 2152], for which the concentration for half-maximal inhibition (IC50) was above 1000 nM.

Regarding `NS(=O)(=O)c1ccc(CCNC(=O)c2csc(-c3c(-c4ccc(F)cc4)n[nH]c3C3CCNCC3)n2)cc1` [Example 2153], the half-inhibitory concentration (IC50) is above 1000 nM.

Compound `COc1ccc(C(=O)CNC(=O)c2csc(-c3c(-c4ccc(F)cc4)n[nH]c3C3CCNCC3)n2)cc1` [Example 2154] registered a 50% inhibitory concentration (IC50) above 1000 nM.

The compound `O=C(NCCc1ccc2c(c1)OCO2)c1csc(-c2c(-c3ccc(F)cc3)n[nH]c2C2CCNCC2)n1` [Example 2155] showed a 50% inhibitory concentration (IC50) above 1000 nM.

In turn, `O=C(NCCC(c1ccccc1)c1ccccc1)c1csc(-c2c(-c3ccc(F)cc3)n[nH]c2C2CCNCC2)n1` [Example 2156] returned an IC50 above 1000 nM.

The compound `Cc1ccc(S(=O)(=O)NCCNC(=O)c2csc(-c3c(-c4ccc(F)cc4)n[nH]c3C3CCNCC3)n2)cc1` [Example 2157] returned a 50% inhibitory concentration (IC50) above 1000 nM.

Regarding `Cc1nc(-c2ccc(F)cc2)c(-c2nc(C(=O)NC(C)C)cs2)[nH]1` [Example 2158, 2-|5-(4-Fluoro-phenyl)-2-methyl-3H-imidazol-4-yl|-thiazole-4-carboxylic acid isopropylamide], the IC50 was at most 1000 nM.

`Cc1nc(-c2ccc(F)cc2)c(-c2nc(C(N)=O)cs2)o1` [Example 2159, 2-|4-(4-Fluoro-phenyl)-2-methyl-oxazol-5-yl|-thiazole-4-carboxylic acid amide] yielded an IC50 above 1000 nM.

`CC(C)NC(=O)c1coc(-c2c(-c3ccc(F)cc3)noc2C2CCNCC2)n1` [Example 2160, 2-|3-(4-Fluoro-phenyl)-5-piperidin-4-yl-isoxazol-4-yl|-oxazole-4-carboxylic acid isopropylamide]: the IC50 was at most 1000 nM.

For `COCCOCn1nc(-c2ccc(F)cc2)c(-c2nc(C=O)cs2)c1C` [Example 2161, 2-|3-(4-Fluoro-phenyl)-1-(2-methoxy-ethoxymethyl)-5-methyl-1H-pyrazol-4-yl|-thiazole-4-carbaldehyde], the IC50 was above 1000 nM.

The compound `CC(C)NC(=O)c1csc(-c2c(-c3ccc(Cl)cc3)ncn2C2CCNCC2)n1` [Example 2162, 2-|5-(4-Chloro-phenyl)-3-piperidin-4-yl-3H-imidazol-4-yl|-thiazole-4-carboxylic acid isopropylamide] gave a 50% inhibitory concentration (IC50) above 1000 nM.
